How the values were obtained:
Assay type in all cases: in vivo
[1] = system: common lambsquarters (Ch); assay: Test Example 9: crop plant selectivity by upland field foliage treatment (wheat), herbicidal effects; parameters: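 grade of growth control; 5 = at least 90%; 4 = 70 to 90%; 3 = 50 to 70%; 2 = 30 to 50%; 1 = 10 to 30%; 0 = under 10%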; conditions: dose 1.6 g ai/10a, 14th day after treatment
Outline: (§1)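 Read-out: weed control and wheat injury, rated by a defined scoring standard 14 days after foliar application.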

pale smartweed (Po) [2] = assay: as above; parameters: scale not given here; conditions: dose 1.6 g ai/10a, 14th day after treatment
Outline: as §1

slender amaranth (Am) [3] = assay: as above; parameters: scale not given here; conditions: dose 1.6 g ai/10a, 14th day after treatment
Outline: as §1

China jute (Ab) [4] = assay: as above; parameters: scale not given here; conditions: dose 1.6 g ai/10a, 14th day after treatment
Outline: as §1

[5] = system: common lambsquarters (Ch); assay: Test Example 10: crop plant selectivity by upland field foliage treatment (soybean), herbicidal effects; conditions: dose 1.6 g ai/10a, 14th day after treatment
Description: (§2) (Test on Crop Plant Selectivity by Upland Field Foliage Treatment)
(§3) In a plastic pot (surface area: 600 cm^2) filled with sand, soybean (Gl), pale smartweed (Po), slender amaranth (Am), common lambsquarters (Ch) and China jute (Ab) were sown and cultured in a green house for 2 weeks. […] The plants were then cultured in a green house, and the evaluation of the herbicidal effects and phytotoxicity was conducted on the 14th day after the treatment in accordance with the standards as identified in Table 47.

pale smartweed (Po) [6] = assay: as above; conditions: dose 1.6 g ai/10a, 14th day after treatment
Description: as §2, §3

slender amaranth (Am) [7] = assay: as above; conditions: dose 1.6 g ai/10a, 14th day after treatment
Description: as §2, §3

China jute (Ab) [8] = assay: as above; conditions: dose 1.6 g ai/10a, 14th day after treatment
Description: as §2, §3

[9] = system: common lambsquarters (Ch); assay: Test Example 5: crop plant selectivity by upland field soil treatment (wheat), herbicidal effects; parameters: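 grade of growth control; 5 = at least 90%; 4 = 70 to 90%; 3 = 50 to 70%; 2 = 30 to 50%; 1 = 10 to 30%; 0 = under 10%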; conditions: 21st day after application
Outline: (§4)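 Scores are visual ratings of herbicidal effect or wheat phytotoxicity, recorded on the 21st day after soil treatment of pots sown with wheat and weeds and kept in a greenhouse.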

pale smartweed (Po) [10] = assay: as above; parameters: scale not given here; conditions: 21st day after application
Outline: as §4

green foxtail (Se) = assay: as above; parameters: scale not given here; conditions: 21st day after application
Outline: as §4

slender amaranth (Am) [11] = assay: as above; parameters: scale not given here; conditions: 21st day after application
Outline: as §4

China jute (Ab) [12] = assay: as above; parameters: scale not given here; conditions: 21st day after application
Outline: as §4

cotton (Go) = assay: Test Example 4: crop plant selectivity by upland field soil treatment (cotton), phytotoxicity; parameters: scale not given here; conditions: evaluated 21st day after application
Outline: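 Weeds and cotton, sown in sand and topped with soil, received a soil-applied treatment. Evaluation after three weeks in a greenhouse followed a standard rating scale.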

Row | SMILES | Herbicidal effects Ch [1] | Herbicidal effects Po (pale smartweed (Po) [2]) | Herbicidal effects Am (slender amaranth (Am) [3]) | Herbicidal effects Ab (China jute (Ab) [4]) | Herbicidal effects Ch [5] | Herbicidal effects Po (pale smartweed (Po) [6]) | Herbicidal effects Am (slender amaranth (Am) [7]) | Herbicidal effects Ab (China jute (Ab) [8]) | Herbicidal effects Ch ([9]; dose 6.3 g ai/10a) | Herbicidal effects Po (pale smartweed (Po) [10]; dose 6.3 g ai/10a) | Herbicidal effects Se (green foxtail (Se); dose 6.3 g ai/10a) | Herbicidal effects Am (slender amaranth (Am) [11]; dose 6.3 g ai/10a) | Herbicidal effects Ab (China jute (Ab) [12]; dose 6.3 g ai/10a) | Phytotoxicity Go (cotton (Go); dose 6.3 g ai/10 a) | Herbicidal effects Ch ([9]; dose 1.6 g ai/10a) | Herbicidal effects Po (pale smartweed (Po) [10]; dose 1.6 g ai/10a) | Herbicidal effects Se (green foxtail (Se); dose 1.6 g ai/10a) | Herbicidal effects Am (slender amaranth (Am) [11]; dose 1.6 g ai/10a) | Herbicidal effects Ab (China jute (Ab) [12]; dose 1.6 g ai/10a) | Phytotoxicity Go (cotton (Go); dose 1.6 g ai/10 a)
1 | CCCc1cc2c(-c3ccc(C(F)(F)F)n(C)c3=O)c(F)cc(Cl)c2o1 [Compound 4-3] | 5 | 5 | 5 | 5 | 5 | 5 | 5 | 5 | 5 | 5 | 5 | 5 | 5 | 0 | – | – | – | – | – | –
2 | CCON=Cc1cc(-c2ccc(C(F)(F)F)n(C)c2=O)c(F)cc1Cl [Compound 1-187] | 5 | 5 | 5 | 5 | 5 | 5 | 5 | 5 | 5 | 5 | 5 | 5 | 5 | 0 | – | – | – | – | – | –
3 | CCc1cc2c(Cl)cc(F)c(-c3ccc(C(F)(F)F)n(C)c3=O)c2o1 [Compound 5-2] | 5 | 5 | 5 | 5 | 5 | 5 | 5 | 5 | 5 | 5 | 5 | 5 | 5 | 1 | – | – | – | – | – | –
4 | Cc1cc2c(-c3ccc(C(F)(F)F)n(C)c3=O)c(F)cc(Cl)c2o1 [Compound 4-1] | 5 | 5 | 5 | 5 | – | – | – | – | 5 | 5 | 5 | 5 | 5 | 1 | 5 | 5 | 5 | 5 | 5 | 0
5 | Cn1c(C(F)(F)F)ccc(-c2cc(OCCCl)c(Cl)cc2F)c1=O [1-171] | 5 | 5 | 5 | 5 | 5 | 5 | 5 | 5 | 5 | 5 | 5 | 5 | 5 | 0 | – | – | – | – | – | –
6 | Cn1c(C(F)(F)F)ccc(-c2cc(C#N)c(Cl)cc2F)c1=O [Compound No. 1-119, 3-(4-chloro-5-cyano-2-fluorophenyl)-1-methyl-6-trifluoromethyl-2(1H)-pyridone] | 5 | 5 | 5 | 4 | 5 | 5 | 5 | 4 | – | – | – | – | – | 0 | – | – | – | – | – | –
7 | CCOCOc1cc(-c2ccc(C(F)(F)F)n(C)c2=O)c(F)cc1Cl [1-181] | 5 | 5 | 5 | 5 | – | – | – | – | 5 | 5 | 5 | 5 | 5 | 0 | – | – | – | – | – | –
8 | CCc1cc2c(-c3ccc(C(F)(F)F)n(C)c3=O)c(F)cc(Cl)c2o1 [Compound 4-2] | 5 | 5 | 5 | 5 | – | – | – | – | – | – | – | – | – | 2 | 5 | 5 | 5 | 5 | 5 | 1
9 | CCCC(=O)c1cc(-c2ccc(C(F)(F)F)n(C)c2=O)c(F)cc1Cl [Compound No. 1-194, 3-[4-chloro-2-fluoro-5-(1-oxobutyl)phenyl]-1-methyl-6-trifluoromethyl-2(1H)-pyridone] | 5 | 5 | 5 | 5 | – | – | – | – | 5 | 5 | 5 | 5 | 5 | 1 | – | – | – | – | – | –
10 | Cn1c(C(F)(F)F)ccc(-c2c(F)cc(Cl)c3occc23)c1=O [Compound No. 4-28, 3-(7-chloro-5-fluorobenzofuran-4-yl)-1-methyl-6-trifluoromethyl-2-(1H)-pyridone] | 5 | 5 | 5 | 5 | – | – | – | – | 5 | 5 | 5 | 5 | 5 | 1 | – | – | – | – | – | 0
11 | CCOC(=O)CON=Cc1cc(-c2ccc(C(F)(F)F)n(C)c2=O)c(F)cc1Cl [Compound 1-191] | 5 | 5 | 5 | 5 | – | – | – | – | 5 | 5 | 5 | 5 | 5 | 1 | – | – | – | – | – | –
12 | C#CCOc1cc(-c2ccc(C(F)(F)F)n(N)c2=O)c(F)cc1Cl [1-178] | 5 | 5 | 5 | 5 | – | – | – | – | – | – | – | – | – | 1 | 5 | 5 | 5 | 5 | 5 | 1
13 | C#CCN1C(=O)COc2cc(Cl)c(-c3ccc(C(F)(F)F)n(C)c3=O)cc21 [Compound 2-25] | 5 | 5 | 5 | 5 | – | – | – | – | 5 | 5 | 5 | 5 | 5 | 0 | 5 | 5 | 5 | 5 | 5 | 0
14 | CSCOc1cc(-c2ccc(C(F)(F)F)n(C)c2=O)c(F)cc1Cl [Compound 1-208] | 5 | 5 | 5 | 5 | 5 | 5 | 5 | 5 | 5 | 4 | 5 | 5 | 5 | 1 | – | – | – | – | – | –
15 | COc1cc(-c2ccc(C(F)(F)F)n(N)c2=O)c(F)cc1Cl [1-179] | 5 | 5 | 5 | 5 | – | – | – | – | 5 | 5 | 5 | 5 | 5 | 0 | – | – | – | – | – | –
16 | Cn1c(C(F)(F)F)ccc(-c2cc(OCC3CC3)c(Cl)cc2F)c1=O [1-160] | 5 | 5 | 5 | 5 | – | – | – | – | 5 | 5 | 5 | 5 | 5 | 1 | – | – | – | – | – | –
17 | C#CCOc1cc(-c2ccc(C(F)(F)F)n(C)c2=O)c(Cl)cc1Cl [1-30] | 5 | 5 | 5 | 5 | – | – | – | – | – | – | – | – | – | 1 | 5 | 5 | 5 | 5 | 5 | 0
